Assay results reported in ChEMBL document CHEMBL5380834, “Design, Synthesis, and Biological Evaluation of Androgen Receptor (AR) Antagonist-Heat Shock Protein 90 (Hsp90) Inhibitor Conjugates for Targeted Therapy of Castration-Resistant Prostate Cancer” (J Med Chem, 2023).
Activity calls are given as the source filed them. The rule behind the calls is not given here.

Tests used:
[1] = Biodistribution in BALB/c mouse muscle tissue xenografted with human 22Rv1 cells at 2.5 mg/kg, iv measured at 0.5 to 1 hrs; type: ADME, organism-based, CWR22R; details: in vivo, time 0.5-1 hrs
[2] = Biodistribution in BALB/c mouse kidney xenografted with human 22Rv1 cells at 2.5 mg/kg, iv measured at 0.5 to 1 hrs; type: ADME, organism-based, CWR22R; details: in vivo, time 0.5-1 hrs
[3] = Biodistribution in BALB/c mouse prostate gland xenografted with human 22Rv1 cells at 2.5 mg/kg, iv measured at 0.5 to 1 hrs; type: ADME, organism-based, CWR22R; details: in vivo, time 0.5-1 hrs
[4] = Toxicity in ICR mouse assessed as testis damage at 30 to 50 mg/kg, iv administered every second day for 14 days; type: organism-based; details: in vivo, 336 h, dose 30-50 mg/kg, time 14 day
[5] = Biodistribution in BALB/c mouse spleen xenografted with human 22Rv1 cells at 2.5 mg/kg, iv measured at 0.5 to 1 hrs; type: ADME, organism-based, CWR22R; details: in vivo, time 0.5-1 hrs
LNCaP [6] = assay: Induction of apoptosis in human LNCaP cells assessed as increase in caspase-3 level at 1 uM measured after 48 hrs by Western blot analysis; type: functional, cell-based
LNCaP [7] = assay: Antitumor activity against human LNCaP cells xenografted in BALB/c nude mouse assessed as downregulation of TMPRSS2 level at 5 mg/kg, ip administered once every 4th day for 3 weeks and measured at 2 hrs post dose; type: functional, organism-based
CWR22R [8] = assay: Antitumor activity against human 22Rv1 cells xenografted in BALB/c nude mouse assessed as reduction in tumor growth at 5 mg/kg, ip administered once every 4th day for 3 weeks; type: functional, organism-based
LNCaP [9] = assay: Cytotoxicity against AR-positive human LNCaP cells assessed as inhibition of cell growth incubated for 5 days in presence of AR agonist, R1881 in charcoal stripped serum by WST-1 assay; type: functional, cell-based; details: 120 h
CWR22R [10] = assay: Antitumor activity against human 22Rv1 cells xenografted in BALB/c nude mouse assessed as tumor growth inhibition at 2.5 mg/kg, ip administered once every 4th day for 3 weeks; type: functional; details: 22Rv1, 504 h, read-out: TGI
LNCaP [11] = assay: Downregulation of AR-regulated TMPRSS2 protein level in human LNCaP cells measured for 48 hrs in presence of AR agonist, R1881 in charcoal stripped serum by Western blot analysis; type: functional, cell-based; details: dose 300-1000 nM
[12] = target: T1, Androgen receptor (Homo sapiens) (UniProt P10275); assay: Induction of full length AR degradation in human LNCaP cells assessed as maximum degradation at 100 nM measured after 12 hrs relative to control; type: cell-based
T1 sequence (whole entry): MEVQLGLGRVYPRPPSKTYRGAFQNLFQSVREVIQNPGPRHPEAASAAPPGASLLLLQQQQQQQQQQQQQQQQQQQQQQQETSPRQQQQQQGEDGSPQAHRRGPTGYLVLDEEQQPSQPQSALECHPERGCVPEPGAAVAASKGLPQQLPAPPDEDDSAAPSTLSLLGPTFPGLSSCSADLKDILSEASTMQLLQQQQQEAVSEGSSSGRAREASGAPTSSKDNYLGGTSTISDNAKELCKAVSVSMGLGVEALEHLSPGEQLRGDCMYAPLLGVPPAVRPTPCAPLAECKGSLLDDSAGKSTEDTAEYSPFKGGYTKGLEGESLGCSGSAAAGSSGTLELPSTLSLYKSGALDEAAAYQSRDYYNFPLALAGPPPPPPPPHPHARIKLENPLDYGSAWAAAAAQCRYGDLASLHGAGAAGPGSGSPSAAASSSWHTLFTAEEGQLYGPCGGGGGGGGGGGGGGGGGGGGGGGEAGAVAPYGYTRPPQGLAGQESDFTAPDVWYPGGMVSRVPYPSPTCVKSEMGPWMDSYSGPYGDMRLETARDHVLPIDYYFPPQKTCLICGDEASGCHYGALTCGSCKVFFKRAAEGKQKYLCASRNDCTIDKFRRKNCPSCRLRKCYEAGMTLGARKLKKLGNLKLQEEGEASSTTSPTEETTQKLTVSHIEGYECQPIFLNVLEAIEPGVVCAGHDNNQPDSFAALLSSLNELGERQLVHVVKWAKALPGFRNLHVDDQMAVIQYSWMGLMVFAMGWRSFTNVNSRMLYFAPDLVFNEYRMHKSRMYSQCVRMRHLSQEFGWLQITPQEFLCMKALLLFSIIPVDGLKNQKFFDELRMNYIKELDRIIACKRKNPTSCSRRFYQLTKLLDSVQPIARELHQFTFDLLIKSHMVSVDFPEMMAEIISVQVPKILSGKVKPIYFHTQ

[13] = Toxicity in ICR mouse assessed as heart damage at 30 to 50 mg/kg, iv administered every second day for 14 days; type: organism-based; details: in vivo, 336 h, dose 30-50 mg/kg, time 14 day
[14] = Toxicity in ICR mouse assessed as liver damage at 30 to 50 mg/kg, iv administered every second day for 14 days; type: organism-based; details: in vivo, 336 h, dose 30-50 mg/kg, time 14 day
[15] = Toxicity in ICR mouse assessed as animal weight loss at 30 to 50 mg/kg, iv administered every second day for 14 days; type: organism-based; details: in vivo, 336 h, dose 30-50 mg/kg, time 14 day
LNCaP [16] = assay: Induction of apoptosis in human LNCaP cells assessed as increase in PARP level at 1 uM measured after 48 hrs by Western blot analysis; type: functional, cell-based
[17] = Biodistribution in BALB/c mouse testis xenografted with human 22Rv1 cells at 2.5 mg/kg, iv measured at 0.5 to 1 hrs; type: ADME, organism-based, CWR22R; details: in vivo, time 0.5-1 hrs
CWR22R [18] = assay: Antitumor activity against human 22Rv1 cells xenografted in BALB/c nude mouse assessed as downregulation of AR-FL level at 2.5 mg/kg, ip administered once every 4th day for 3 weeks; type: functional, organism-based
LNCaP [19] = assay: Antitumor activity against human LNCaP cells xenografted in BALB/c nude mouse assessed as downregulation of PSA level at 5 mg/kg, ip administered once every 4th day for 3 weeks and measured at 2 hrs post dose; type: functional, organism-based
LNCaP [20] = assay: Antitumor activity against human LNCaP cells xenografted in BALB/c nude mouse assessed as downregulation of AR-FL level at 5 mg/kg, ip administered once every 4th day for 3 weeks and measured at 2 hrs post dose; type: functional, organism-based
LNCaP [21] = assay: Antitumor activity against human LNCaP cells xenografted in BALB/c nude mouse assessed as downregulation of FKBP5 level at 5 mg/kg, ip administered once every 4th day for 3 weeks and measured at 2 hrs post dose; type: functional, organism-based
[22] = Toxicity in BALB/c nude mouse xenografted with human LNCaP cells assessed as animal weight loss at 2.5 mg/kg, ip administered once every 4th day for 3 weeks; type: organism-based; details: in vivo, 504 h
[23] = Biodistribution in BALB/c mouse tumor xenografted with human 22Rv1 cells at 2.5 mg/kg, iv measured at 12 hrs; type: ADME, organism-based, Neoplasm, CWR22R; details: in vivo
[24] = Downregulation of AR-regulated FKBP5 protein level in human LNCaP cells at 300 nM measured for 48 hrs in presence of AR agonist, R1881 in charcoal stripped serum by Western blot analysis relative to control; type: functional
LNCaP [25] = assay: Downregulation of AR-regulated PSA protein level in human LNCaP cells measured for 48 hrs in presence of AR agonist, R1881 in charcoal stripped serum by Western blot analysis; type: functional, cell-based; details: dose 300-1000 nM

For `CC(C)c1cc(-c2n[nH]c(=O)n2-c2ccc(CN3CCN(CC4CCN(c5ccc(C(=O)N[C@H]6CC[C@H](Oc7ccc(C#N)c(Cl)c7)CC6)nn5)CC4)CC3)cc2)c(O)cc1O`, the Drug uptake [1] was “Active”, the Drug uptake [2] was “Active” and the Drug uptake [3] was “Active”. The Activity [4] was “Non-Toxic”, the Drug uptake [5] was “Active” and the Activity (LNCaP [6]) was “Active”. The Activity (LNCaP [7]) was “Active”, the Activity (CWR22R [8]) was “Active” and the IC50 (LNCaP [9]) was 171 nM. For the same compound, the inhibition in vivo at 2.5 mg/kg (CWR22R [10]) was 50%, the Activity (LNCaP [11]) was “Dose-Dependent Effect” and the Activity [12] was greater than 90%. The Activity [13] was “Non-Toxic”, the Activity [14] was “Non-Toxic” and the Activity [15] was “Non-Toxic”. For the same compound, the Activity (LNCaP [16]) was “Active”, the Drug uptake [17] was “Active” and the Activity (CWR22R [18]) was “Active”. For the same compound, the Activity (LNCaP [19]) was “Active”, the Activity (LNCaP [20]) was “Active” and the Activity (LNCaP [21]) was “Active”. For the same compound, the Activity [22] was 10%, the Drug uptake [23] was “Active” and the Activity [24] was greater than 50%. For the same compound, the Activity (LNCaP [25]) was “Dose-Dependent Effect”.
